Data taken from patent US7119094B1, “Substituted polycyclic aryl and heteroarpyl pyrazinones useful for selective inhibition of the coagulation cascade” (Warner-Lambert Company, priority 2000, dated 2006).
Read-outs that look alike come from different tables or passages of the source.

How the values were obtained:
[1] = target: T1, recombinant soluble tissue factor and recombinant human factor VIIa (TF-VIIa) (Homo sapiens, UniProt P08709); assay: TF-VIIa Assay; assay type: biochemical
T1 construct: conversion of coagulation factor VII to VIIa by Xa; purchased American Diagnostica, Greenwich Conn; host or cells: factor VIIa purchased; soluble TF made in house in E. coli
T1 sequence (P08709 213-466 limits assumed): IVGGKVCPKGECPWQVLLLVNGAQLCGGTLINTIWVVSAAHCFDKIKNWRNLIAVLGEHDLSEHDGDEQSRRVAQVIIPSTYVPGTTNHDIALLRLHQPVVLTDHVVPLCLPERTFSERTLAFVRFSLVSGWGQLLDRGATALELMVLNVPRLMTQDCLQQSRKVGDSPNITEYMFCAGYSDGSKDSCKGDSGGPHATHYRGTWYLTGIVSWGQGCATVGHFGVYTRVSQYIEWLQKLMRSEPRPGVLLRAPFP
T1 sequence (P08709 61-212 limits assumed): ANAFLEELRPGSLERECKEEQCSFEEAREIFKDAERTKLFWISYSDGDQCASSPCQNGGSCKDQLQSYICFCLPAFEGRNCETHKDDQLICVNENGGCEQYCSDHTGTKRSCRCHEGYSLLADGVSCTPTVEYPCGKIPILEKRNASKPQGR
T1 sequence (P13726 33-251 partner limits assumed): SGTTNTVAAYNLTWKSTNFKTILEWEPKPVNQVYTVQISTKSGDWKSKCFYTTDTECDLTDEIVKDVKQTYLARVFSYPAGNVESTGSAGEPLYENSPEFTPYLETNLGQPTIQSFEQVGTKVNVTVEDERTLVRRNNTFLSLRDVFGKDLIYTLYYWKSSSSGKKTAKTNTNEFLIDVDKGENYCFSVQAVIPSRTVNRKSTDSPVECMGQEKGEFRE

[2] = target: T2, Trypsin (type 1× from porcine pancreas) (Sus scrofa, UniProt P00761); assay: Trypsin Assay; assay type: biochemical
T2 construct: Trypsin (5 ug/ml; type 1× from porcine pancreas); purchased Sigma, St. Louis Mo; host or cells: porcine pancreas
T2 sequence (P00761 9-231): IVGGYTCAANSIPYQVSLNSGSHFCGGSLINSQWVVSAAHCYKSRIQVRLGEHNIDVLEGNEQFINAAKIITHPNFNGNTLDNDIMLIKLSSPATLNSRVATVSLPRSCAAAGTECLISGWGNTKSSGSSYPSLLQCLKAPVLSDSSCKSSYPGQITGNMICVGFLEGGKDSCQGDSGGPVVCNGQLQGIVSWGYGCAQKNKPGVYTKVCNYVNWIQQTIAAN

% Inhibition TF-VIIa (100 νM) ([1]; inhibitor at 100 νM) | % Inhibition Trpysin II (100 νM) ([2]; inhibitor at 100 νM) | SMILES | % Inhibition TF-VIIa (100 νM) [1] | % Inhibition Trpysin II (100 νM) [2]
0% | 5% | COc1ccc(-c2c(Cl)nc(NCc3ccccc3)c(=O)n2CC(=O)NCCc2ccncc2)cc1 [Example E-0033] | – | –
0% | 3% | COc1ccc(-c2c(Cl)nc(NCCc3ccccc3)c(=O)n2CC(=O)NCCc2ccncc2)cc1 [Example E-0034] | – | –
4% | 2% | COc1ccc(-c2c(Cl)nc(NCCc3cccc(Cl)c3)c(=O)n2CC(=O)NCCc2ccncc2)cc1 [Example E-0035] | – | –
0% | 0% | COc1ccc(-c2c(Cl)nc(NCCc3ccc(Cl)cc3)c(=O)n2CC(=O)NCCc2ccncc2)cc1 [Example E-0036] | – | –
0% | 2% | COc1ccc(-c2c(Cl)nc(NCCc3cccnc3)c(=O)n2CC(=O)NCCc2ccncc2)cc1 [Example E-0037] | – | –
0% | 3% | COc1ccc(-c2c(Cl)nc(NCCc3ccncc3)c(=O)n2CC(=O)NCCc2ccncc2)cc1 [Example E-0038] | – | –
0% | 2% | COc1ccc(-c2c(Cl)nc(NCCN3CCOCC3)c(=O)n2CC(=O)NCCc2ccncc2)cc1 [Example E-0039] | – | –
0% | 4% | COc1ccc(-c2c(Cl)nc(NCc3ccncc3)c(=O)n2CC(=O)NCCc2ccncc2)cc1 [Example E-0040] | – | –
0% | 2% | O=C(Cn1c(-c2ccc3c(c2)OCO3)c(Cl)nc(NCc2ccccc2)c1=O)NCCc1ccncc1 [Example E-0041] | – | –
0% | 5% | O=C(Cn1c(-c2ccc3c(c2)OCO3)c(Cl)nc(NCCc2ccccc2)c1=O)NCCc1ccncc1 [Example E-0042] | – | –
0% | 3% | O=C(Cn1c(-c2ccc3c(c2)OCO3)c(Cl)nc(NCCc2cccc(Cl)c2)c1=O)NCCc1ccncc1 [Example E-0043] | – | –
0% | 3% | O=C(Cn1c(-c2ccc3c(c2)OCO3)c(Cl)nc(NCCc2ccc(Cl)cc2)c1=O)NCCc1ccncc1 [Example E-0044] | – | –
0% | 4% | O=C(Cn1c(-c2ccc3c(c2)OCO3)c(Cl)nc(NCCc2cccnc2)c1=O)NCCc1ccncc1 [Example E-0045] | – | –
0% | 4% | O=C(Cn1c(-c2ccc3c(c2)OCO3)c(Cl)nc(NCCc2ccncc2)c1=O)NCCc1ccncc1 [Example E-0046] | – | –
0% | 2% | O=C(Cn1c(-c2ccc3c(c2)OCO3)c(Cl)nc(NCCN2CCOCC2)c1=O)NCCc1ccncc1 [Example E-0047] | – | –
0% | 0% | O=C(Cn1c(-c2ccc3c(c2)OCO3)c(Cl)nc(NCc2ccncc2)c1=O)NCCc1ccncc1 [Example E-0048] | – | –
– | – | O=C(Cn1c(-c2ccc(-c3ccccc3)cc2)c(Cl)nc(NCc2ccccc2)c1=O)NCCc1ccncc1 [Example E-0049] | 2% | 0%
– | – | O=C(Cn1c(-c2ccc(-c3ccccc3)cc2)c(Cl)nc(NCCc2ccccc2)c1=O)NCCc1ccncc1 [Example E-0050] | 0% | 0%
– | – | O=C(Cn1c(-c2ccc(-c3ccccc3)cc2)c(Cl)nc(NCCc2ccc(Cl)cc2)c1=O)NCCc1ccncc1 [Example E-0052] | 0% | 0%
0% | 0% | O=C(Cn1c(Cc2ccccc2)c(Cl)nc(NCc2ccccc2)c1=O)NCCc1ccncc1 [Example E-0057] | – | –
0% | 0% | O=C(Cn1c(Cc2ccccc2)c(Cl)nc(NCCc2ccccc2)c1=O)NCCc1ccncc1 [Example E-0058] | – | –
0% | 0% | O=C(Cn1c(Cc2ccccc2)c(Cl)nc(NCCc2cccc(Cl)c2)c1=O)NCCc1ccncc1 [Example E-0059] | – | –
0% | 0% | O=C(Cn1c(Cc2ccccc2)c(Cl)nc(NCCc2ccc(Cl)cc2)c1=O)NCCc1ccncc1 [Example E-0060] | – | –
0% | 0% | O=C(Cn1c(Cc2ccccc2)c(Cl)nc(NCCc2cccnc2)c1=O)NCCc1ccncc1 [Example E-0061] | – | –
0% | 0% | O=C(Cn1c(Cc2ccccc2)c(Cl)nc(NCCc2ccncc2)c1=O)NCCc1ccncc1 [Example E-0062] | – | –
0% | 0% | O=C(Cn1c(Cc2ccccc2)c(Cl)nc(NCCN2CCOCC2)c1=O)NCCc1ccncc1 [Example E-0063] | – | –

% Inhibition TF-VIIa (100 νM) ([1]; inhibitor at 100 νM) | % Inhibition Trpysin II (100 νM) ([2]; inhibitor at 100 νM) | SMILES | % Inhibition TF-VIIa (100 νM) [1] | % Inhibition Trpysin II (100 νM) [2]
0% | 0% | O=C(Cn1c(Cc2ccccc2)c(Cl)nc(NCc2ccncc2)c1=O)NCCc1ccncc1 [Example E-0064] | – | –
0% | 0% | O=C(Cn1c(CCc2ccccc2)c(Cl)nc(NCc2ccccc2)c1=O)NCCc1ccncc1 [Example E-0065] | – | –
0% | 0% | O=C(Cn1c(CCc2ccccc2)c(Cl)nc(NCCc2ccccc2)c1=O)NCCc1ccncc1 [Example E-0066] | – | –
0% | 0% | O=C(Cn1c(CCc2ccccc2)c(Cl)nc(NCCc2cccc(Cl)c2)c1=O)NCCc1ccncc1 [Example E-0067] | – | –
0% | 0% | O=C(Cn1c(CCc2ccccc2)c(Cl)nc(NCCc2ccc(Cl)cc2)c1=O)NCCc1ccncc1 [Example E-0068] | – | –
0% | 0% | O=C(Cn1c(CCc2ccccc2)c(Cl)nc(NCCc2cccnc2)c1=O)NCCc1ccncc1 [Example E-0069] | – | –
0% | 0% | O=C(Cn1c(CCc2ccccc2)c(Cl)nc(NCCc2ccncc2)c1=O)NCCc1ccncc1 [Example E-0070] | – | –
0% | 0% | O=C(Cn1c(CCc2ccccc2)c(Cl)nc(NCCN2CCOCC2)c1=O)NCCc1ccncc1 [Example E-0071] | – | –
0% | 0% | O=C(Cn1c(CCc2ccccc2)c(Cl)nc(NCc2ccncc2)c1=O)NCCc1ccncc1 [Example E-0072] | – | –
0% | 6% | O=C(Cn1c(-c2cccc(Cl)c2)c(Cl)nc(NCc2ccccc2)c1=O)NCCc1ccncc1 [Example E-0073] | – | –
0% | 8% | O=C(Cn1c(-c2cccc(Cl)c2)c(Cl)nc(NCc2ccccc2)c1=O)NCCc1cccnc1 [Example E-0074] | – | –
0% | 10% | O=C(Cn1c(-c2cccc(Cl)c2)c(Cl)nc(NCCc2ccccc2)c1=O)NCCc1ccncc1 [Example E-0076] | – | –
0% | 7% | O=C(Cn1c(-c2cccc(Cl)c2)c(Cl)nc(NCCc2ccccc2)c1=O)NCCc1cccnc1 [Example E-0077] | – | –
0% | 11% | O=C(Cn1c(-c2cccc(Cl)c2)c(Cl)nc(NCCc2cccc(Cl)c2)c1=O)NCCc1ccncc1 [Example E-0079] | – | –
1% | 5% | O=C(Cn1c(-c2cccc(Cl)c2)c(Cl)nc(NCCc2cccc(Cl)c2)c1=O)NCCc1cccnc1 [Example E-0080] | – | –
4% | 3% | O=C(Cn1c(-c2cccc(Cl)c2)c(Cl)nc(NCCc2ccc(Cl)cc2)c1=O)NCCc1ccncc1 [Example E-0082] | – | –
2% | 6% | O=C(Cn1c(-c2cccc(Cl)c2)c(Cl)nc(NCCc2ccc(Cl)cc2)c1=O)NCCc1cccnc1 [Example E-0083] | – | –
0% | 9% | O=C(Cn1c(-c2cccc(Cl)c2)c(Cl)nc(NCc2ccccc2)c1=O)NCCc1ccncc1 [Example E-0085] | – | –
0% | 11% | O=C(Cn1c(-c2cccc(Cl)c2)c(Cl)nc(NCc2ccccc2)c1=O)NCCc1cccnc1 [Example E-0086] | – | –
0% | 9% | O=C(Cn1c(-c2cccc(Cl)c2)c(Cl)nc(NCCc2ccccc2)c1=O)NCCc1ccncc1 [Example E-0088] | – | –
3% | 8% | O=C(Cn1c(-c2cccc(Cl)c2)c(Cl)nc(NCCc2ccccc2)c1=O)NCCc1cccnc1 [Example E-0089] | – | –
1% | 8% | O=C(Cn1c(-c2cccc(Cl)c2)c(Cl)nc(NCCc2cccc(Cl)c2)c1=O)NCCc1ccncc1 [Example E-0091] | – | –
1% | 9% | O=C(Cn1c(-c2cccc(Cl)c2)c(Cl)nc(NCCc2cccc(Cl)c2)c1=O)NCCc1cccnc1 [Example E-0092] | – | –
2% | 7% | O=C(Cn1c(-c2cccc(Cl)c2)c(Cl)nc(NCCc2ccc(Cl)cc2)c1=O)NCCc1ccncc1 [Example E-0094] | – | –
2% | 9% | O=C(Cn1c(-c2cccc(Cl)c2)c(Cl)nc(NCCc2ccc(Cl)cc2)c1=O)NCCc1cccnc1 [Example E-0095] | – | –
0% | 11% | COc1ccc(-c2c(Cl)nc(NCc3ccccc3)c(=O)n2CC(=O)NCCc2ccncc2)cc1 [Example E-0097] | – | –
